Source: patent US20150182675A1, “Ascorbic Acid-Eluting Implantable Medical Devices, Systems, and Related Methods” (South Dakota Board of Regents, priority 2012, published 2015)

Tests used:
Type in all cases: cell-based
[1] = test system: smooth muscle cells; assay: FDA staining and fluorescence microscopy of smooth muscle cells (Example Nine); conditions: for confluence of smooth muscle cells: after 7 days; for smooth muscle cell growth from one time point to the other: FDA staining, days 1 to 7
Description: (§1) Example 9 provides a qualitative characterization of the Example Eight results using flurorescence microscopy. More specifically, the growth of smooth muscle cells in the presence of three different treatments (ascorbic acid, paclitaxel, and sirolimus) was investigated by staining the live cells with fluorescein diacetate (FDA). The FDA-stained live cells were then imaged using flurorescence microscopy on day 1, day 3, day 5, and day 7 of culture. On each day, a determination of growth (viability and proliferation) of smooth muscle cells was made.

[2] = test system: endothelial cells; assay: FDA staining and fluorescence microscopy of endothelial cell cultures (Example One); conditions: for endothelial cell adhesion: 100 μg added, 15,000 cells per well, day 1; for spreading of endothelial cells: day 5
Protocol: In Example 1, […] of L-ascorbic acid, 100 μg of sirolimus, and 100 μg paclitaxel were added to separate endothelial cell cultures (15,000 cells per well). A control cell culture was also provided in which no agent was added. The endothelial cell adhesion in the culture well was investigated by staining the live cells with fluorescein diacetate (FDA). The FDA-stained live cells were then imaged using fluorescence microscopy on day one, day 3, day five, and day seven of culture. After five days, a determination of the spreading of endothelial cells was made. After seven days, a determination of growth (viability and proliferation) of endothelial cells was made.

[3] = test system: smooth muscle cells; assay: Phase contrast microscopy of smooth muscle cell morphology (Example Ten); conditions: day 7, phase contrast
Description: Example 10 provides a further qualitative characterization of the Example Eight results using phase contrast microscopy. That is, the effects of L-AA, SIR, and PAT on the growth of smooth muscle cells was investigated by taking phase contrast images of cells after 7 days using an Axiovert 200 M inverted microscopy (Carl Zeiss) in the bright field imaging mode and examining the cell morphology.

[4] = test system: smooth muscle cells; assay: Resazurin fluorometric assay of smooth muscle cell cultures (Example Eight); conditions: for number of smooth muscle cells in comparison to the control: day 1; for smooth muscle cell growth vs control: day 3
Protocol: (§2) In Example 8, a quantitative resazurin fluorometric assay was used. A solution of alamarBlue® from a kit purchased from Biotium Inc. (in Hayward, Calif.) was added to the smooth muscle cell cultures which were already treated with ascorbic acid, sirolimus, or paclitaxel. A control lacking any therapeutic agent was also included. After respective time points (1, 3, 5, and 7 days), the fluorescence of the solution was measured using a microplate reader. The collected data is provided as relative fluorescence units (RFU) vs. time for all the three groups (ascorbic acid, sirolimus, and paclitaxel) of samples.

[5] = test system: endothelial cells; assay: Phase contrast microscopy of endothelial cell morphology (Example Six); conditions: 100 μg added, day 7, phase contrast
Protocol: In Example 6, 100 μg of L-ascorbic acid, 100 μg of sirolimus, and 100 μg paclitaxel were added to separate endothelial cell cultures. A control cell culture was also provided in which no agent was added. The effects of L-AA, SIR, and PAT on the growth of endothelial cells was investigated by taking phase contrast images of cells after 7 days using an Axiovert 200 M inverted microscopy (Carl Zeiss) in the bright field imaging mode and examining the cell morphology.

[6] = test system: smooth muscle cells; assay: FDA staining and fluorescence microscopy of smooth muscle cells, different doses of ascorbic acid (Example Twelve); conditions: for confluence of smooth muscle cells: after 7 days
Description: as §1, with “12” for “9”, “Eleven” for “Eight”, “fluorescence” for “flurorescence”, “five” for “three”, “doses of ascorbic acid” for “treatments (ascorbic acid, paclitaxel, and sirolimus)”

[7] = test system: endothelial cells; assay: Resazurin fluorometric assay (Alamar Blue) of endothelial cell cultures (Example Two); conditions: RFU, FIG. 5
Protocol: as §2, with “order to provide” for “Example 8,”, “quantitative characterization of the Example One results, a” for “quantitative”, “assay (Alamar Blue)” for “assay”, “Alamar Blue” for “alamarBlue® from a kit purchased from Biotium Inc. (in Hayward, Calif.)”, “endothelial” for “smooth muscle”, “was” for “was also”

[8] = test system: smooth muscle cells; assay: Resazurin fluorometric assay of smooth muscle cells, different doses of ascorbic acid (Example Eleven)
Protocol: (§3) In Example 11, a quantitative resazurin fluorometric assay was used. A solution of alamarBlue® from a kit purchased from Biotium Inc. (in Hayward, Calif.) was added to smooth muscle cell cultures which were already treated with different doses of ascorbic acid. More specifically, the different doses of ascorbic acid included 1 μg/mL, 100 μg/mL, 300 μg/mL, 500 μg/mL, and 1000 μg/mL. A control lacking any ascorbic acid was also included. After respective time points (1, 3, 5, and 7 days), the fluorescence of the solution was measured using a microplate reader. The collected data is provided as relative fluorescence units (RFU) vs. time for all the six groups (control, 1 μg/mL, 100 μg/mL, 300 μg/mL, 500 μg/mL, and 1000 μg/mL) of samples.

[9] = test system: endothelial cells; assay: Resazurin fluorometric assay of endothelial cells, different doses of ascorbic acid (Example Seven)
Protocol: as §3, with “7,” for “11,”, “the endothelial” for “smooth muscle”

[10] = days 1 to 7, doses 1 to 1000 μg

## CO[C@H]1C[C@@H]2CC[C@@H](C)[C@@](O)(O2)C(=O)C(=O)N2CCCC[C@H]2C(=O)O[C@H]([C@H](C)C[C@@H]2CC[C@@H](O)[C@H](OC)C2)CC(=O)[C@H](C)/C=C(\C)[C@@H](O)[C@@H](OC)C(=O)[C@H](C)C[C@H](C)/C=C/C=C/C=C/1C [sirolimus]
[1]
  confluence of smooth muscle cells: about 20%

## CC(=O)O[C@H]1C(=O)[C@@]2(C)[C@H]([C@H](OC(=O)c3ccccc3)[C@]3(O)C[C@H](OC(=O)[C@H](O)[C@@H](NC(=O)c4ccccc4)c4ccccc4)C(C)=C1C3(C)C)[C@]1(OC(C)=O)CO[C@@H]1C[C@@H]2O [paclitaxel]
[2]
  endothelial cell adhesion: poor
[2]; 100 μg added
  spreading of endothelial cells: poor
[2]; 100 μg added, day 7
  growth (viability and proliferation) of endothelial cells: poor
[3]
  smooth muscle cell morphology and spreading: not spreading and only very few cells were spindle-shaped
[4]
  number of smooth muscle cells in comparison to the control: significantly lesser number of cells
  smooth muscle cell growth vs control: significantly inhibited the cell growth
[4]; day 5 (similar on day 7)
  number of smooth muscle cells vs ascorbic acid treatment: lesser numbers of cells than that of the ascorbic acid treatment
[4]; days 1 to 7
  order of SMC viability and proliferation (decreasing): Control>>ascorbic acid>sirolimus=paclitaxel
[1]
  smooth muscle cell growth from one time point to the other: significantly inhibited
  confluence of smooth muscle cells: about 20%
[5]
  endothelial cell morphology: uncharacteristic oval or round shape with no spreading morphology

## O=C1O[C@H]([C@@H](O)CO)C(O)=C1O [ascorbic acid, L-ascorbic acid]
[2]
  endothelial cell adhesion: excellent
[2]; 100 μg added
  spreading of endothelial cells: excellent
[2]; 100 μg added, day 7
  growth (viability and proliferation) of endothelial cells: excellent
  growth of endothelial cells in comparison to the control: more growth in comparison to the control
[3]
  smooth muscle cell morphology and spreading: spindle-shaped, but they were less spreading when compared to the control
[4]
  number of smooth muscle cells in comparison to the control: significantly lesser number of cells
  smooth muscle cell growth vs control: significantly inhibited the cell growth
[4]; days 1 to 7
  effect on growth of SMCs (overall): significantly inhibited growth of SMCs
  order of SMC viability and proliferation (decreasing): Control>>ascorbic acid>sirolimus=paclitaxel
[1]
  smooth muscle cell growth from one time point to the other: significantly inhibited
  confluence of smooth muscle cells: 50-60%
[6]; 1 μg dose
  inhibitory effect on smooth muscle cells: no inhibitory effect
  confluence of smooth muscle cells: > 90%
[6]; 1000 μg dose
  inhibitory effect on smooth muscle cells: maximum inhibitory effect
  confluence of smooth muscle cells: 30-40%
[6]; 100 μg dose
  confluence of smooth muscle cells: 50-60%
[6]; 300 μg dose
  confluence of smooth muscle cells: 50-60%
[6]; 500 μg dose
  confluence of smooth muscle cells: 30-40%
[6]; doses ranging from 100 to 1000 μg, days 1 to 7
  smooth muscle cell growth: significantly inhibited
[7]
  growth of endothelial cells relative to cells treated with paclitaxel: 10 fold
  growth of endothelial cells relative to cells treated with sirolimus: 19 fold
  growth of endothelial cells relative to control (no drug): 1.6 fold
[8]; day 1, doses 100 to 1000 μg
  number of smooth muscle cells vs control and 1 μg dose: significantly fewer cells
[8]; day 3 (similar days 5 and 7), 500 and 1000 μg doses
  number of smooth muscle cells vs 100 and 300 μg doses: fewer cells in comparison to the 100 and 300 μg doses
[8]; [10]
  order of viability and proliferation of smooth muscle cells for the different doses (decreasing): control=1 μg>>100 μg=300 μg>500 μg=1000 μg
[9]; day 1, all doses (1 to 1000 μg/mL)
  number of endothelial cells vs control: no significant differences
[9]; day 3, 100 μg dose
  number of endothelial cells vs control and other doses: significantly greater
[9]; day 5, 100 μg dose
  number of endothelial cells vs control and other doses: significantly greater number of cells
[9]; day 5, 300 μg dose
  number of endothelial cells vs control and other doses: significantly greater number of cells
[9]; day 5, 500 μg dose
  number of endothelial cells vs control and other doses: significantly greater number of cells
[9]; day 7, 300 μg/mL dose
  number of endothelial cells among the groups: maximum number of cells
[9]; day 7, 100 dose
  number of endothelial cells among the groups: maximum number of cells
[9]; [10]
  order of viability and proliferation of endothelial cells for the different doses (increasing): 1000 μg<1 μg=control=500 μg<<300 μg=100 μg
[5]
  endothelial cell morphology: spreading morphology with characteristic polygonal shape
